US11229628B2, “TRPA1 and TRPV4 inhibitors and methods of using the same for organ-specific inflammation and itch” (Duke University, priority 2015, dated 2022)
“Also recorded” adds a separate entry of the source.

How the values were obtained:
human TRPV3 = molecular target: T1, human TRPV3 (Homo sapiens, UniProt Q8NET8); experiment: Ca2+ signal in N2a cells transfected with human TRPV3 (camphor stimulation); format: cell-based
T1 construct: expressed in transfected cells; host or cells: N2a cells
T1 sequence (Q8NET8 1-790): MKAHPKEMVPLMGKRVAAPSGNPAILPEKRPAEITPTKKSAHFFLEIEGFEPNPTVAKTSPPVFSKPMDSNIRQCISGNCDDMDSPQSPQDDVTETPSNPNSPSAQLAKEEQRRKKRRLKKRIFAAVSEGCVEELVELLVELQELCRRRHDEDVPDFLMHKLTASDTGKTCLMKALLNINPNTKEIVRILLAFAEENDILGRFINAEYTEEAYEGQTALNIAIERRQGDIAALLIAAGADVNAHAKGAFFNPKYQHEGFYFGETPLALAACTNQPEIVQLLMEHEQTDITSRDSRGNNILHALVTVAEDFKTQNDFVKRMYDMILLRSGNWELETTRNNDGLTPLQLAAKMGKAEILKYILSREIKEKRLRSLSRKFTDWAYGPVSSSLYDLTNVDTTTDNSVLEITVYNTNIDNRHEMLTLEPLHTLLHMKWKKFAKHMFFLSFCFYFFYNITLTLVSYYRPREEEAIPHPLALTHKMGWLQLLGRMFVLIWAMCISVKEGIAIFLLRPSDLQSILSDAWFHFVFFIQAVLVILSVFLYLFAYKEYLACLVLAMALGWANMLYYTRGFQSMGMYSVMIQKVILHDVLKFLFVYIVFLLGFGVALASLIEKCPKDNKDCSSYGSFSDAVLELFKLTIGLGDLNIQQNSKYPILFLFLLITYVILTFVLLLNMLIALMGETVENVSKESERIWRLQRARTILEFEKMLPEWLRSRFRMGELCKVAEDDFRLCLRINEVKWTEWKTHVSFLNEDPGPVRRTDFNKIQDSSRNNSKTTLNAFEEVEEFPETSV
Experimental: Compounds were tested for their effect on TRPV1, TRPV2, and TRPV3. Methods were similar to those described in Example 15. Briefly, N2a cells were transfected with human TRPV1, TRPV2, or TRPV3. eGFP-transfection was used as control. For specific stimulation of TRPV1, 5 μM capsaicin was used. For stimulation of TRPV2, hypotonicity (260 mosmol/L) was used, based on previous reports of TRPV2 being osmotically responsive. N2a cells were not responsive to hypotonicity, and neither were control-transfected cells. For TRPV3-expressing cells, camphor (20% of a commercially available stock solution) was used. […] Stimulation and control protocols were applied as for TRPA1-expressing N2a cells as detailed above in Example 15.
For TRPV1, TRPV2, and TRPV3, Ca2+ transience was not affected by administration of 16-8 or 16-8/18hy.

mice = experiment: UVB-overexposure evoked nocifensive behavior (sunburn model), topical treatment; format: in vivo, mouse; conditions: 0.5 mM in 40 μL
Experimental: Compounds were tested for their effect on nocifensive behavior (response to pain) following UVB overexposure. Behavioral tests were performed to evaluate the decrease in withdrawal thresholds in response to mechanical von Frey hair or thermal stimuli applied to hind paws. The Von-Frey apparatus (Ugo Basile) applied a mechanical stimulus with a flexible steel wire from underneath the hind paw. The force leading to withdrawal was determined. For the thermal stimuli test, paws were stimulated with heat from underneath applied by an infrared beam (Hargreave's test apparatus; Ugo Basile), and withdrawal latencies were recorded. The withdrawal thresholds were ascertained before and after UV exposure. Mice were exposed to UVB 3-5 days after the last application of tam/oil, using a Bio-Rad Gel Doc 2000 UV transilluminator (302 nm) for 5 min with an exposure of 600 mJ/cm^2. This represents 5-10 times the minimal erythema-inducing dose, in keeping with the rationale of inducing sunburn and studying sunburn-evoked pain.

TRPV4 [1] = molecular target: T2, TRPV4 (Mus musculus, UniProt Q9EPK8); experiment: GSK101-evoked Ca++ transient in 1° MK (fura-2); format: cell-based; conditions: 5 nM GSK101; 20 μM GSK205
T2 construct: Primary mouse keratinocytes were derived from back skin of newborn mice; endogenous in cells; host or cells: primary mouse epidermal keratinocytes (1° MK), wild type
T2 sequence (Q9EPK8 whole entry): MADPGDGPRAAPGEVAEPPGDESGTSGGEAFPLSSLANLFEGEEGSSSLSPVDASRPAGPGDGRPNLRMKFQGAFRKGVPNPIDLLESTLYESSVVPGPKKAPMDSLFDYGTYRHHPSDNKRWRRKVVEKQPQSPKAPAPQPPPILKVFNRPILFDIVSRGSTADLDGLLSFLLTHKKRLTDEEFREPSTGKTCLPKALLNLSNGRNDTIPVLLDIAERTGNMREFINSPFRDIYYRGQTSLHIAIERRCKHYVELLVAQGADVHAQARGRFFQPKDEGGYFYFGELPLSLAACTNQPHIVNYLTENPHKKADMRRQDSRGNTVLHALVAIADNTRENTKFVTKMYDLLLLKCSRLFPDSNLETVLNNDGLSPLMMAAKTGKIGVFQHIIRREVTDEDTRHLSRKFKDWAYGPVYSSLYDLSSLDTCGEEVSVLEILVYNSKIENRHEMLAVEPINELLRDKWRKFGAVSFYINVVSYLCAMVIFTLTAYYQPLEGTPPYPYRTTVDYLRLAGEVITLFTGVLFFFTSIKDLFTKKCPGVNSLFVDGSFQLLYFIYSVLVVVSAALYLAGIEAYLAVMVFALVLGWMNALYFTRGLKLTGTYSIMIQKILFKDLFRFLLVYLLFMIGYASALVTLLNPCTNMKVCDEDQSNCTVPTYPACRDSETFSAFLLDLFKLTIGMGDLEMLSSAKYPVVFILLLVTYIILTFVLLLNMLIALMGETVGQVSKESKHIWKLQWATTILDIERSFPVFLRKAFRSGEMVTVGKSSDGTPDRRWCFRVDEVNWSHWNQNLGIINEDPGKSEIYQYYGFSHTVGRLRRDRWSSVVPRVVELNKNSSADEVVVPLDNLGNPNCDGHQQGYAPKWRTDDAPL
Experimental: Ca++ imaging of mouse 1° MK in response to chemical activation of TRPV4 was conducted after loading with 2 μM fura2-AM, following a ratiometric Ca2+ imaging protocol with 340/380 nm […] for dual excitation. Ratios of emissions were acquired at 0.5 Hz. ΔR/R0 was determined as the fraction of the increase of a given ratio over baseline ratio, divided by baseline ratio. For stimulation of cells with UVB, where fura-2 was not suitable because of the proximity of stimulation with 340/380 nm and 295 nm, 2 μM fluo4-AM was used instead. Ca++ imaging was carried out at 488 nm excitation, acquisition of emissions at 0.5 Hz, expressed as ΔF/F0. In the custom-built UV optical system, UV LEDs were capped with a ball lens, a transparent optical window in the shape of a hemispherical lens (FIG. 2B). The LED output optical beam focused at 15-20 mm from the lens, with a spot diameter of approximately 1.5˜2.0 mm (FIG. 2C). […] The thermal equilibration stage was set for physiological temperature. We confirmed the non-thermal nature of UVB stimulation using the customized 295 nm LED device in a dedicated experiment (FIG. 2D), thus confirming the specific modality of stimulation as UVB.
We obtained corroborating findings by chemically activating TRPV4 with GSK101, which can directly stimulate TRPV4 in WT 1° MK. […]

TRPV4 [2] = molecular target: TRPV4 (Homo sapiens, UniProt Q9HBA0); experiment: UVB-evoked Ca++ transient in TRPV4-transfected HEK293T cells; format: cell-based; parameters: expressed in transfected cells; host or cells: HEK293T cells; conditions: pre-exposure to 20 μM GSK205
TRPV4 (Homo sapiens, UniProt Q9HBA0), sequence (Q9HBA0 whole entry, species assumed): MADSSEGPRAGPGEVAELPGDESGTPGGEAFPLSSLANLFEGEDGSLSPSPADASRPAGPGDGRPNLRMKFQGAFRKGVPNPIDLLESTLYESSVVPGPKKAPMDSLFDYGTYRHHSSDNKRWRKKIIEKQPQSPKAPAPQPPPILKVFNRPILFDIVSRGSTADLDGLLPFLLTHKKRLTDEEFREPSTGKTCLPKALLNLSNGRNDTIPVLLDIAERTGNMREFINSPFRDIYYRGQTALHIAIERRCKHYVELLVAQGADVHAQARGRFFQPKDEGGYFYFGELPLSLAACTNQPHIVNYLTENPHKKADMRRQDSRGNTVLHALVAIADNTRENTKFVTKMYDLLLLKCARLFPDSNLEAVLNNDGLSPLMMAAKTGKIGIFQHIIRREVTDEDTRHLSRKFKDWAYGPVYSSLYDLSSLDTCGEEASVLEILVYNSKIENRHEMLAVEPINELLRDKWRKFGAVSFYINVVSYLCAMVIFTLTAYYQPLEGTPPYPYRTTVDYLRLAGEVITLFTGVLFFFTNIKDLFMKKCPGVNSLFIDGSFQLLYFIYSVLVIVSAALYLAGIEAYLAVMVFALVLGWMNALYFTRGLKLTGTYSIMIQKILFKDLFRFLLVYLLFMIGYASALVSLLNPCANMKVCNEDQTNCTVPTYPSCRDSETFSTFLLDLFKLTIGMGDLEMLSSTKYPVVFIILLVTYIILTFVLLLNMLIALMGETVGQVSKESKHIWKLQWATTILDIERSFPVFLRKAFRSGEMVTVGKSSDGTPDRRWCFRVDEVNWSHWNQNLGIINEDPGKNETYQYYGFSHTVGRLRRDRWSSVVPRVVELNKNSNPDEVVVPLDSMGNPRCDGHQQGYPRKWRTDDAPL
Text: (B) Focusing properties of the ball lens. […] (E) TRPV3 activation experiment. […] (F) TRPV4 selective activator GSK101-related findings.
To assess whether TRPV4 is sufficient for the UVB-evoked Ca++ influx, we introduced high levels of TRPV4 into HEK293 epithelial cells. TRPV4 expression endowed these cells with the ability to generate robust Ca++ signaling in response to UVB (FIG. 2G). Moreover, if they were pre-exposed to GSK205, the response was blocked. Thus, heterologous TRPV4 expression is sufficient for UVB radiation to cause a cellular Ca++ transient.

| SMILES | Ca2+ transience, TRPV3 (human TRPV3) | UVB-overexposure evoked nocifensive behavior (response to pain) (mice) | GSK101-evoked Ca++ transient (TRPV4 [1]) | UVB-evoked Ca++ signal in TRPV4-transfected HEK293T cells (TRPV4 [2]) |
| --- | --- | --- | --- | --- |
| CCN(CCc1ccc(Nc2nc(-c3ccccc3)cs2)cc1)Cc1ccccc1 [16-8/18hy] | not affected | – | – | – |
| CN(CCc1ccc(Nc2nc(-c3ccccc3)cs2)cc1)Cc1ccccc1 [Compound 16-8] | not affected | especially effective in reducing the response to pain | – | – |
| CN(CCc1ccc(Nc2nc(-c3cccnc3)cs2)cc1)Cc1ccccc1 [GSK205] | – | as effective as vehicle | eliminated; also recorded: completely blocked | blocked; also recorded: virtually eliminates |
